Data as given in the NIST ThermoML archive (doi:10.1016/j.jct.2012.10.008).

Test: xn = mol fraction of the nth substance listed
Conditions: 101 kPa, Liquid; for viscosity: Falling or rolling sphere viscometry; for mass density: Vibrating tube method

CCCC[NH3+].O=[N+]([O-])[O-] [n-butylammonium nitrate] + CO
Conditions | mass density, 293.15 K [kg/m3] | mass density, 298.15 K [kg/m3] | mass density, 303.15 K [kg/m3] | mass density, 308.15 K [kg/m3] | mass density, 313.15 K [kg/m3] | viscosity, 293.15 K [mPa·s] | viscosity, 298.15 K [mPa·s] | viscosity, 303.15 K [mPa·s] | viscosity, 308.15 K [mPa·s] | viscosity, 313.15 K [mPa·s]
x1 = 0.0999 | 884.86 | 880.73 | 876.67 | 872.57 | 868.45 | 1.377 | 1.267 | 1.173 | 1.119 | 1.014
x1 = 0.1998 | 944.76 | 940.97 | 937.17 | 933.38 | 929.59 | 2.723 | 2.466 | 2.248 | 2.058 | 1.893
x1 = 0.3012 | 987.04 | 983.43 | 979.82 | 976.23 | 972.64 | 4.923 | 4.382 | 3.934 | 3.555 | 3.229
x1 = 0.4005 | 1016.59 | 1013.11 | 1009.64 | 1006.18 | 1002.74 | 9.129 | 8 | 7.037 | 6.242 | 5.584
x1 = 0.5015 | 1039.93 | 1036.55 | 1033.17 | 1029.82 | 1026.48 | 14.79 | 12.8 | 11.16 | 9.779 | 8.66
x1 = 0.6507 | 1065.48 | 1062.21 | 1058.95 | 1055.7 | 1052.47 | 28.64 | 24.08 | 20.59 | 17.77 | 15.5
x1 = 0.8007 | 1085.18 | 1081.98 | 1078.78 | 1075.61 | 1072.46 | 51.33 | 42.07 | 35.23 | 29.65 | 25.41
x1 = 0.9007 | 1096.21 | 1093.04 | 1089.88 | 1086.74 | 1083.63 | 77.73 | 64.34 | 53.02 | 44.24 | 37.21
x1 = 1 | 1104.68 | 1101.52 | 1098.38 | 1095.26 | 1092.17 | 111.35 | 89.95 | 73.04 | 60.25 | 50.12
